Measurements reported in the supplement of paper PMC13380429.
± gives the standard deviation of the averaged measurements.

Key:
Conditions in all cases: 72 h
Calu-3 [1] = assay: cell viability relative to DMSO; higher = less toxic
Caco-2 [2] = assay: as above
U2OS [3] = assay: as above
Vero E6 [4] = assay: as above
Calu-3 [5] = assay: drug sensitivity score (DSS) for viability; higher = more toxic; extreme values may be limits of the assay
Caco-2 [6] = assay: as above
U2OS [7] = assay: as above
Vero E6 [8] = assay: as above
Calu-3 [9] = assay: relative viability EC50 (midpoint between 100% and the lowest measured viability); higher = less toxic
Caco-2 [10] = assay: as above
U2OS [11] = assay: as above
Vero E6 [12] = assay: as above
HepG2 [13] = assay: cell viability relative to DMSO; higher = less toxic
HepG2 [14] = assay: drug sensitivity score (DSS) for viability; higher = more toxic; extreme values may be limits of the assay
HepG2 [15] = assay: relative viability EC50 (midpoint between 100% and the lowest measured viability); higher = less toxic

Row | Compound | cell viability (Calu-3 [1]; 1 nM) | cell viability (Calu-3 [1]; 10 nM) | cell viability (Calu-3 [1]; 100 nM) | cell viability (Calu-3 [1]; 1000 nM) | cell viability (Calu-3 [1]; 10000 nM) | cell viability (Caco-2 [2]; 1 nM) | cell viability (Caco-2 [2]; 10 nM) | cell viability (Caco-2 [2]; 100 nM) | cell viability (Caco-2 [2]; 1000 nM) | cell viability (Caco-2 [2]; 10000 nM) | cell viability (U2OS [3]; 1 nM) | cell viability (U2OS [3]; 10 nM) | cell viability (U2OS [3]; 100 nM) | cell viability (U2OS [3]; 1000 nM) | cell viability (U2OS [3]; 10000 nM) | cell viability (Vero E6 [4]; 1 nM) | cell viability (Vero E6 [4]; 10 nM) | cell viability (Vero E6 [4]; 100 nM) | cell viability (Vero E6 [4]; 1000 nM) | cell viability (Vero E6 [4]; 10000 nM) | drug sensitivity score (Calu-3 [5]) | drug sensitivity score (Caco-2 [6]) | drug sensitivity score (U2OS [7]) | drug sensitivity score (Vero E6 [8]) | relative viability EC50 (Calu-3 [9]) | relative viability EC50 (Caco-2 [10]) | relative viability EC50 (U2OS [11]) | relative viability EC50 (Vero E6 [12]) | cell viability (HepG2 [13]; 1 nM) | cell viability (HepG2 [13]; 10 nM) | cell viability (HepG2 [13]; 100 nM) | cell viability (HepG2 [13]; 1000 nM) | cell viability (HepG2 [13]; 10000 nM) | drug sensitivity score (HepG2 [14]) | relative viability EC50 (HepG2 [15])
1 | CC(=O)NC1N=C(c2ccccc2)c2ccccc2NC1=O (stereo unspecified) | 112% | 101% | 101% | 101% | 95.1% | 103% | 97.7% | 93.9% | 101% | 103% | 101% | 94.6% | 95.5% | 95.3% | 96.9% | 98.5% | 96.5% | 99% | 93.7% | 108% | 0 | 0 | 0 | 0 | > 10 µM | > 10 µM | > 10 µM | > 10 µM | – | – | – | – | – | – | –
2 | CCCOc1ccc(Br)cc1-c1cc(-c2ccc(Cl)cc2)[nH]c1-c1ccncc1 | 99.6% | 96.3% | 103% | 94.2% | 103% | 95.3% | 95.3% | 93.6% | 100% | 84.8% | 104% | 106% | 104% | 97.5% | 98.6% | 95.6% | 102% | 99.7% | 98% | 85.7% | 0 | 0.2 | 0 | 0.4 | > 10 µM | > 10 µM | > 10 µM | > 10 µM | 104% | 97.7% | 96.1% | 101% | 65.9% | 1.5 | –
3 | C[C@H](NC(=O)[C@@H](Cc1c[nH]c2ccccc12)NC(=O)[C@@H](N)Cc1c[nH]cn1)C(=O)N[C@@H](Cc1c[nH]c2ccccc12)C(=O)N[C@H](Cc1ccccc1)C(=O)N[C@@H](CCCCN)C(N)=O | 94.6% | 109% | 107% | 107% | 99.1% | 92% | 97% | 98.7% | 99.6% | 110% | – | – | – | – | – | 108% | 100% | 99.1% | 100% | 102% | 0 | 0 | – | 0 | > 10 µM | > 10 µM | – | > 10 µM | – | – | – | – | – | – | –
4 | c1ccc(CNCc2ccc(CN3CCCNCCNCCCNCC3)cc2)nc1 [AMD-3465] | 102% | 97.5% | 94.1% | 101% | 115% | 105% | 100% | 102% | 100% | 96.2% | 102% | 99.3% | 101% | 99% | 103% | – | – | – | – | – | 0 | 0 | 0 | – | > 10 µM | > 10 µM | > 10 µM | – | 102% | 101% | 101% | 103% | 97.3% | 0 | > 10 µM
5 | COc1cc2ncnc(Nc3cccc(Cl)c3F)c2cc1OC(=O)N1CCN(C)C[C@H]1C [AZD3759] | 86.5% | 93.6% | 93.1% | 48.4% | 32.2% | 94.4% | 91.1% | 91.2% | 90.1% | 81.9% | 96.8% | 101% | 95.6% | 95.6% | 92.8% | 94.7% | 90.3% | 81.8% | 60.8% | 51.6% | 10.6 | 1.1 | 0 | 9.3 | 0.442 µM | > 10 µM | > 10 µM | – | 101% | 86.6% | 104% | 95.8% | 101% | 0 | > 10 µM
6 | CN1CCC(Nc2ncc3ncnc(Nc4ccc(F)c(Cl)c4)c3n2)CC1 [BIBX-1382] | 101% | 115% | 95.8% | 70.2% | 27.4% | 99% | 104% | 85.4% | 81.4% | 63.3% | 99.4% | 104% | 95.9% | 98.9% | 83.8% | 104% | 104% | 90.1% | 61.7% | 36.2% | 7.6 | 4.4 | 0.4 | 8.4 | 1.21 µM | – | > 10 µM | 0.634 µM | 102% | 93.6% | 98.8% | 95.8% | 68.3% | 2.1 | –
7 | CC(C)C[C@@H](NC(=O)[C@H](Cc1ccccc1)NC(=O)CNC(=O)[C@@H](C)NC(=O)[C@@H](N)Cc1ccc(O)cc1)C(=O)O [BW-180C] | 97.6% | 94.5% | 91.1% | 100% | 89.4% | 113% | 96.9% | 98.6% | 102% | 101% | 99.4% | 97.8% | 104% | 104% | 99.1% | – | – | – | – | – | 0 | 0 | 0 | – | > 10 µM | > 10 µM | > 10 µM | – | 105% | 98.4% | 99.4% | 102% | 100% | 0 | > 10 µM
8 | O[C@H]1CC[C@H](Nc2ncc3nc(Nc4c(F)cc(F)cc4F)n([C@H]4CCOC4)c3n2)CC1 [CC-930] | 101% | 100% | 104% | 87.5% | 81.7% | 99.1% | 102% | 102% | 96.7% | 86.1% | 97.3% | 104% | 95% | 96.7% | 91.1% | 98.5% | 97% | 98.3% | 93.7% | 73.4% | 1.6 | 0.4 | 0 | 2 | > 10 µM | > 10 µM | > 10 µM | – | 104% | 102% | 93.5% | 97.1% | 89.6% | 0 | > 10 µM
9 | Cn1nccc1Nc1nccc(-c2ccn([C@H](CO)c3ccc(Cl)c(F)c3)c(=O)c2)n1 [GDC-0994] | 99.2 ± 6.9% | 103 ± 3% | 97.9 ± 7.3% | 96.45 ± 0.78% | 110 ± 4.3% | 97.6 ± 3.7% | 98.4 ± 3.1% | 87.8 ± 2.5% | 82.4 ± 5.8% | 79.9 ± 6.7% | 96.9 ± 0.14% | 101.3 ± 0.99% | 92.2 ± 3.8% | 97.4 ± 0.85% | 96.8 ± 2.9% | 104 ± 7.4% | 101 ± 3.4% | 101 ± 5.4% | 87.75 ± 0.35% | 70.9 ± 5.8% | 0 | 3.15 ± 2.6 | 0 | 2.6 ± 0.28 | > 10 µM | > 10 µM | > 10 µM | – | 106.8 ± 0.57% | 96.8 ± 3% | 74.8 ± 3.2% | 38.2 ± 1.2% | 40.6 ± 3.4% | 14.5 ± 0.28 | 0.119 µM
10 | COC[C@H](C)Oc1cc(O[C@@H](C)Cc2ccccc2)cc(C(=O)Nc2ccc(C(=O)O)cn2)c1 [GKA-50] | 96.9% | 103% | 97.8% | 107% | 98.2% | 100% | 97% | 96.2% | 96.2% | 92.7% | 103% | 104% | 103% | 99.4% | 98.8% | – | – | – | – | – | 0 | 0 | 0 | – | > 10 µM | > 10 µM | > 10 µM | – | 112% | 105% | 99.5% | 120% | 113% | 0 | > 10 µM
11 | CCCCCCCCCCCCCCCc1cccc(OCC(=O)NCCO)c1 [PDP-EA] | 102% | 87.2% | 94.9% | 91.5% | 91.7% | 105% | 109% | 98.2% | 109% | 109% | – | – | – | – | – | – | – | – | – | – | 0 | 0 | – | – | > 10 µM | > 10 µM | – | – | 102% | 113% | 95.6% | 115% | 103% | 0 | > 10 µM
12 | O=C1c2c(O)cccc2C([C@@H]2O[C@H](CO)[C@@H](O)[C@H](O)[C@H]2O)c2cc(CO)cc(O)c21 (stereo partly specified) [aloin] | 104% | 95.7% | 103% | 104% | 97.3% | 92.1% | 104% | 96.6% | 93.9% | 99.4% | 96.9% | 100% | 92.9% | 97.4% | 92.7% | – | – | – | – | – | 0 | 0 | 0 | – | > 10 µM | > 10 µM | > 10 µM | – | 106% | 94.1% | 103% | 94.7% | 103% | 0 | > 10 µM
